Counter-ions that a name gives are not always drawn.
Assay: Pharmacokinetic study in rats
Details: for concentration at 60 min / concentration at 90 min / concentration at 120 min / concentration at 240 min / concentration at 360 min / concentration at 480 min / concentration at 720 min / concentration at 1440 min / concentration at 5 min / concentration at 15 min / concentration at 30 min: oral, 20 μmol/kg, intragastric 20 μmol/kg
Experimental: All stock solutions of the test compound were sonicated and heated to become clarified and formulated to a 25 mM solution with DMSO.
All samples were dosed at 20 μmol/kg.
The blood sample was centrifuged at 8000 rpm for 5 min, the plasma was collected in a centrifuge tube and stored at −20° C. for use.
Treatment of the plasma sample: the proteins in 50 μL plasma sample were precipitated with 200 μL acetonitrile containing internal standard (Propranolol (PRO), 2.5 ng/mL). Vortexed for 10 min, centrifuged at 6000 g for 10 min, the supernatant was taken and 5-fold diluted with the mobile phase, and the supernatant was injected into a 96-well plate for analysis.
flow rate: 0.3 mL/min; injection volume: 2 μL; column temperature 45° C. The gradient elution procedure was: […]
The ion source was an electrospray ionization source (Turbo Ionspray, ESI); the electrospray voltage was 5500V; the temperature was 500° C.; pressure of ion source gas 1 (N2) was 50 psi; pressure of ion source gas 2 (N2) was 50 psi; pressure of curtain gas (N2) 20 psi; pressure of collision gas (CAD) was Medium; scan time was 100 ms; positive ion mode detection; scan mode was multiple reaction monitoring (MRM), ion reaction and collision energy (CE) for quantitative analysis, declustering potential (DP) are shown in the following table: […]

[1] = SD (Sprague-Dawley), rat, plasma, Plasma concentration Mean, SD rats, mean of 3 rats
[2] = SD (Sprague-Dawley), rat, plasma, Plasma concentration Rat1, SD rats, Rat1
[3] = SD (Sprague-Dawley), rat, plasma, Plasma concentration Rat 2, SD rats, Rat 2
[4] = SD (Sprague-Dawley), rat, plasma, Plasma concentration Rat 3, SD rats, Rat 3
[5] = SD rats, intragastric, 20 umol/kg
[6] = SD, rat, plasma, Plasma concentration Mean, SD rats, mean of 3 rats
[7] = SD, rat, plasma, Plasma concentration Rat1, SD rats, Rat1
[8] = SD, rat, plasma, Plasma concentration Rat 2, SD rats, Rat 2
[9] = SD, rat, plasma, Plasma concentration Rat 3, SD rats, Rat 3

concentration at 60 min [1]: 910 nM
concentration at 90 min [1]: 730 nM
concentration at 120 min [1]: 600 nM
concentration at 240 min [1]: 430 nM
concentration at 360 min [1]: 180 nM
concentration at 480 min [1]: 80 nM
concentration at 720 min [1]: 30 nM
concentration at 1440 min [1]: 10 nM
concentration at 5 min [2]: 15.3 nM
concentration at 60 min [2]: 616 nM
concentration at 90 min [2]: 394 nM
concentration at 120 min [2]: 305 nM
concentration at 240 min [2]: 465 nM
concentration at 360 min [2]: 193 nM
concentration at 480 min [2]: 88.5 nM
concentration at 720 min [2]: 62.6 nM
concentration at 1440 min [2]: 8.08 nM
concentration at 5 min [3]: 42.5 nM
concentration at 60 min [3]: 1210 nM
concentration at 90 min [3]: 961 nM
concentration at 120 min [3]: 725 nM
concentration at 240 min [3]: 333 nM
concentration at 360 min [3]: 148 nM
concentration at 480 min [3]: 42 nM
concentration at 720 min [3]: 13.1 nM
concentration at 1440 min [3]: 6.99 nM
concentration at 5 min [4]: 22.2 nM
concentration at 60 min [4]: 897 nM
concentration at 90 min [4]: 835 nM
concentration at 120 min [4]: 758 nM
concentration at 240 min [4]: 495 nM
concentration at 360 min [4]: 211 nM
concentration at 480 min [4]: 107 nM
concentration at 720 min [4]: 25.7 nM
concentration at 1440 min [4]: 15.6 nM
Clearance [5]: 89 mL/min/kg
Vss [5]: 24.325 L/kg
Vz [5]: 35.978 L/kg
thalf [5]: 283.79 min
concentration at 5 min [6]: 30 nM
concentration at 15 min [6]: 530 nM
concentration at 30 min [6]: 1030 nM
concentration at 15 min [7]: 399 nM
concentration at 30 min [7]: 784 nM
concentration at 15 min [8]: 732 nM
concentration at 30 min [8]: 1320 nM
concentration at 15 min [9]: 448 nM
concentration at 30 min [9]: 990 nM
AUC(0-t) (SD, rat, plasma, po, 20 umol/kg, AUC(0-t), SD rats, intragastric): 3.73 µM·h
AUC (SD, rat, plasma, po, 20 umol/kg, AUCextra, SD rats, intragastric): 0.0715 µM·h
AUC (SD, rat, plasma, po, 20 umol/kg, AUCtot, SD rats, intragastric): 3.8 µM·h
Cmax (SD, rat, plasma, po, 20 umol/kg, Cmax, SD rats, intragastric): 1030 nM
MRT (SD, rat, plasma, po, 20 umol/kg, MRT, SD rats, intragastric): 4.53 h
Tmax (SD, rat, plasma, po, 20 umol/kg, Tmax, SD rats, intragastric): 0.5 h
Compound: CNC(=O)c1ccc(-c2cnc3ncc(Cc4ccc5ncccc5c4)n3n2)cc1F [INCB28060 hydrochloride]
exposure in rats (comparison in words) (rats, 20 μmol/kg intragastric): not as good as that of crystal form A of SPH1772 ditartrate and crystal form A of SPH1772
